How the values were obtained:
[1] = Apparent permeability in human Caco2 cells; format: ADME, cell-based; settings: Caco-2
[2] = Lipophilicity, log P of the compound; format: physicochemical; settings: octanol/water

With `CC(C)(C)C(=O)Nc1ncnc2c1cnn2CCN1CCCCC1` as the compound, how does the Papp [1] read?
The Papp was 39 ×10⁻⁶ cm/s.

And the logP [2]?
The logP was 2.6.

— ChEMBL document CHEMBL4261507, “Pyrazolo[3,4-d]pyrimidines as sigma-1 receptor ligands for the treatment of pain. Part 1: 4-acylamino derivatives” (Medchemcomm, 2017)
